We go through 2 compounds from patent publication US20070123699A1, “Peptide conjugate useful for cell nucleus molecular imaging and tumor therapy” (priority 2002, published 2007).

SMILES strings stand for the structures.

Series [1] relates to DU-145 prostate cancer cells. Kind of series: MRI: DU-145 cell uptake and efflux of Gd^3+ conjugates (T1-weighted signal, relaxivity). The format is cell-based, human. The protocol: (I) MRI: DU-145 Cell Uptake of the CNN—Gd^3+-Complex and CNRN—Gd^3+-Complex Compared to that of Magnevist®
DU-145 cells were harvested and divided into tubes (Falcon®, Becton Dickinson USA, Cat. No.: 35.2096) (Cell No.: 40×10^6 cells per tube). The CNN—Gd^3+-complex (Table 1, #1552a), the CNRN—Gd^3+-complex (Table 1, #1552b) and the Magnevist® were each dissolved in MEM in a concentration of 0.5 mM and were then incubated for 10, 20, 30 minutes up to 3 hours. […]
MR imaging used a 1.5-T whole body Siemens Magnetom Vision Plus with a standard circular polarized head coil. […] T1 and T2 relaxation-times within the pellets of the three tubes (CNN—Gd^3+, CNRN—Gd^3+, Magnevist) were measured to evaluate the intracellular relaxivity of the respective contrast agents (R=1/T1). The T1-relaxation time was measured by means of an inversion-recovery-sequence (TR: 5000 ms/TE: 76 ms/TI: 25-4000 ms, 17 different TI-values, scan-time 15×25 sec, FOV: 160 mm×160 mm, Matrix: 132×256, slice thickness: 7 mm, pixel size: 1.21×0.63 mm). T2 relaxation-time was measured by a multi-echo-sequence (TR: 5000 ms/16 TE-values: 30 ms-245 ms, FOV: 250 mm×250 mm, Matrix: 256×256, slice thickness: 5 mm, pixel size: 0.98×0.98 mm, scan time: 21 min 21 sec). […]

The conditions of series [2]: i.v. administered alkylating drug, brain tumor; cited from earlier work.

On to `CNC[C@H](O)[C@@H](O)[C@H](O)[C@H](O)CO.CNC[C@H](O)[C@@H](O)[C@H](O)[C@H](O)CO.O=C([O-])CN(CCN(CC(=O)[O-])CC(=O)O)CCN(CC(=O)[O-])CC(=O)O.[Gd+3]` [Magnevist, reference compound], for which the “MRI signal change above that of DU-145 cells incubated solely in MEM” value in series [1] (DU-145 cells, 0.5 mM, T1-weighted MRI) was “no signal change”. Also, the “relaxivity R (R=1/T1) within the DU-145 cell pellets” value in series [1] (after incubation with contrast agent 0.5 mM) turned out to be 0.00069.

Regarding `Cn1nnc2c(C(N)=O)ncn2c1=O` [Temodal], in series [2], the “fraction of drug in the blood passing the blood-brain barrier” value is “about 30%”.
